This is an account of results in patent publication US6926890B2, “Non-invasive approach for assessing tumors in living animals” (priority 2000, dated 2005).

One series has as its system EMT6-CG tumors. The experiment in a line: Ganciclovir treatment of control EMT6-CG tumors monitored by urinary β-hCG. In kind it is in vivo, Balb/c mice. Conditions: control EMT6-CG tumors without thymidine kinase. How it is done: (§1) FIG. 5C. Urinary β-hCG levels before and after ganciclovir (GCV) treatment of intraperitoneal tumors. Five Balb/c mice were injected intraperitoneally with 4×10^6 EMT6-CG-TK cells (black symbols). They received a four-day course of ganciclovir (150 mg/kg/day), administered intraperitoneally beginning three days after tumor cell injection.
(§2) The β-hCG MAIAclone kit (Polymedco Inc. Cortlandt Manor, N.Y.), based on an immunoradiometric system, was used for quantitative determination of urinary β-hCG. Fifty μl of mouse urine samples diluted to achieve a final β-hCG concentration of 2.5-20 mIU/ml, standards, positive and negative controls were mixed with 0.5 ml of ^125I anti-hCG antibodies in 12×75 mm glass tubes (VWR Scientific, Boston, Mass.) and incubated at 37° C. for 15 min. […] The radioactivity of each sample was analyzed in a Gamma 5500 counter (Beckman, Fullerton, Calif.). […] Urinary β-hCG levels were normalized to urinary creatinine measured with a Roche Hitachi 917 analyzer (Roche Diagnostics, Indianapolis, Ind.). The ratio of β-hCG to creatinine was expressed as mIU β-hCG/mg creatinine.
(§3) Next the recombinant tumor system of the present invention was applied to a chemotherapeutic model. […] The difference between the kinetics of tumor cell death mediated by surgery and chemotherapy is readily evident through comparison of FIGS. 5A and 5C.

The subject of the next series is EMT6-CG-TK cells. The experiment in a line: Ganciclovir treatment of intraperitoneal EMT6-CG-TK tumors monitored by urinary β-hCG. It counts as in vivo, Balb/c mice. How it is done: as §1, §2, §3
A short description of series [1]: Clearance of urinary β-hCG after surgical removal of subcutaneous SW480-CG tumors. It counts as in vivo, athymic (nu/nu) mice. How it is done:
Female mice, 10-12 weeks old, were obtained from Harlan (Indianapolis, Ind.). For tail vein injections, 10^5 B 16-CG cells in 0.1 ml PBS were injected into C57BL/6 mice. For intraperitoneal administration, 2×10^6 EMT6-CG cells in 0.3 ml PBS were injected intraperitoneally into Balb/c mice. For intrasplenic injection, 10^6 B16-CG cells in 0.1 ml PBS were injected into the spleens of athymic (nu/nu) mice. For subcutaneous injection, 3×10^6 B16-CG cells or 8×10^6 SW480-CG cells in 0.1 ml PBS were injected into subcutaneous tissues adjacent to the lower spine of athymic (nu/nu) mice.
as §2, with “creatinine. […]” for “creatinine.”

A short description of series [2]: Comparison of β-hCG concentrations in urine and serum of mice with subcutaneous B16-CG tumors. Conditions: serum 10-240 mIU/ml, six mice. In kind it is in vivo. How it is done: The β-hCG MAIAclone kit (Polymedco Inc. Cortlandt Manor, N.Y.), based on an immunoradiometric system, was used for quantitative determination of urinary β-hCG. Fifty μl of mouse urine samples diluted to achieve a final β-hCG concentration of 2.5-20 mIU/ml, standards, positive and negative controls were mixed with 0.5 ml of ^125I anti-hCG antibodies in 12×75 mm glass tubes (VWR Scientific, Boston, Mass.) and incubated at 37° C. for 15 min. Two hundred μl of the magnetic separation matrix provided with the kit was then added to each tube and incubated for 5 min at room temperature. The magnetic reagent with bound β-hCG was separated using a magnetic concentrator (Polymedco Inc.). The matrix was washed in 0.5 ml of the MAIAclone washing buffer provided with the kit and reseparated magnetically. The radioactivity of each sample was analyzed in a Gamma 5500 counter (Beckman, Fullerton, Calif.). The minimal detectable level of β-hCG was 2.5 mIU/ml. Urinary β-hCG levels were normalized to urinary creatinine measured with a Roche Hitachi 917 analyzer (Roche Diagnostics, Indianapolis, Ind.). The ratio of β-hCG to creatinine was expressed as mIU β-hCG/mg creatinine.
To determine whether β-hCG would be excreted in the urine of mice, as it is in pregnant women, the concentrations of β-hCG in urine and serum of mice with subcutaneous B16-CG tumors were compared. […]

“Also recorded” adds a separate entry of the source.

Consider `Nc1nc(O)c2ncn(COC(CO)CO)c2n1` [ganciclovir], for which, in the series on EMT6-CG tumors, the “Tumor response to ganciclovir (urinary β-hCG)” value was “did not respond; also recorded: continued to grow”. For the same molecule, the “Urinary β-hCG levels after ganciclovir treatment” value in the series on EMT6-CG-TK cells (ganciclovir 150 mg/kg/day intraperitoneally, four-day course beginning three days after tumor cell injection) was “began to decline one day after the start of ganciclovir treatment; also recorded: declined to background levels over the next five days”. Besides, the “Necropsy finding after ganciclovir treatment” value in the series on EMT6-CG-TK cells (necropsy after β-hCG declined to background) is listed as “apparently tumor free, without ascites or peritoneal implants”.

B1: β-hCG: β-subunit of human chorionic gonadotropin, glycoprotein hormone secreted by recombinant tumor cells as urinary marker (protein)
chain: SKEPLRPRCRPINATLAVEKEGCPVCITVNTTICAGYCPTMTRVLQGVLPALPQVVCNYRDVRFESIRLPGCPRGVNPVVSYAVALSCQCALCRRSTTDCGGPKDHPLTCDDPRFQDSSSSKAPPPSLPSPSRLPGPSDTPILPQ
With B1, the “half-life of urinary β-hCG” value in series [1] (after surgical removal of SW480-CG tumors, eight animals) is 11 ± 2.3 h. The “Urinary β-hCG levels after tumor removal” value in series [1] (subcutaneous SW480-CG tumors removed 18 days after implantation, within a day or two of removal) is listed as “rapidly dropped to undetectable levels”. For the same molecule, in series [2], the “urine concentration relative to serum concentration of β-hCG” value is listed as 3.8±0.31 times the serum concentration.
